# Activity calls are given as the source filed them. The calls are words filed in the database; no cut-off is given here.
# Assays:
# [1] = molecular target: T1, Diacylglycerol O-acyltransferase 1 (Homo sapiens, UniProt O75907); assay: Inhibition of recombinant human DGAT1 expressed in Sf9 cell membrane assessed as inhibition of triglyceride synthesis incubated for 1 hrs by LC-MS-based mass spectrophotometric analysis; format: cell membranes
# T1 sequence (O75907 whole entry): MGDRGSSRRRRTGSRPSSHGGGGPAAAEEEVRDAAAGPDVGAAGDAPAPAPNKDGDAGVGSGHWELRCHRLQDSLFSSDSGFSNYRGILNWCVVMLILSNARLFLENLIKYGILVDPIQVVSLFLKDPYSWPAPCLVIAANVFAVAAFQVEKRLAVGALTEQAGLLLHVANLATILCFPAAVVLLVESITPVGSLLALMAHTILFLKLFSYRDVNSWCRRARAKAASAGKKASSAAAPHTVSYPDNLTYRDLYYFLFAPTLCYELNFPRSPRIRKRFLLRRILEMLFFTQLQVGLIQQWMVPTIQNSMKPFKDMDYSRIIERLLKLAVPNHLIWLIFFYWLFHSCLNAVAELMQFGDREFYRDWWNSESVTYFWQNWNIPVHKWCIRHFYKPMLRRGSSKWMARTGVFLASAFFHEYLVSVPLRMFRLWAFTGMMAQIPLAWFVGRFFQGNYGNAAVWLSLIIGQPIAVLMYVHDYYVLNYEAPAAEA
# [2] = molecular target: T1, Diacylglycerol O-acyltransferase 1; assay: Inhibition of human DGAT1 in serum starved HEK293 cells assessed as inhibition of triglyceride synthesis incubated for 20 mins followed by 13C-addition of 13C-oleic acid pre-complexed with BSA for 120 mins by LC-MS-based mass spectrophotometric analysis; format: cell-based
# Mus musculus [3] = assay: In vivo inhibition of DGAT1 in C57BL/6 mouse model of acute lipid challenge assessed as reduction in chylomicron derived plasma triglyceride excursion at 3 to 10 mg/kg, po as corn oil bolus by Oral lipid tolerance test relative to control; format: functional, organism-based; details: dose 3-10 mg/kg
# Mus musculus [4] = assay: In vivo inhibition of DGAT1 in C57BL/6 mouse model of acute lipid challenge assessed as reduction in AUC plasma triglyceride level at 3 to 10 mg/kg, po as corn oil bolus by Oral lipid tolerance test relative to control; format: functional, organism-based; details: dose 3-10 mg/kg
# CYP1A2 = molecular target: T2, CYP1A2 (Homo sapiens, UniProt P05177); assay: Inhibition of recombinant human CYP1A2 at 25 uM by fluorescence plate reader analysis; format: ADME
# T2 sequence (P05177 whole entry): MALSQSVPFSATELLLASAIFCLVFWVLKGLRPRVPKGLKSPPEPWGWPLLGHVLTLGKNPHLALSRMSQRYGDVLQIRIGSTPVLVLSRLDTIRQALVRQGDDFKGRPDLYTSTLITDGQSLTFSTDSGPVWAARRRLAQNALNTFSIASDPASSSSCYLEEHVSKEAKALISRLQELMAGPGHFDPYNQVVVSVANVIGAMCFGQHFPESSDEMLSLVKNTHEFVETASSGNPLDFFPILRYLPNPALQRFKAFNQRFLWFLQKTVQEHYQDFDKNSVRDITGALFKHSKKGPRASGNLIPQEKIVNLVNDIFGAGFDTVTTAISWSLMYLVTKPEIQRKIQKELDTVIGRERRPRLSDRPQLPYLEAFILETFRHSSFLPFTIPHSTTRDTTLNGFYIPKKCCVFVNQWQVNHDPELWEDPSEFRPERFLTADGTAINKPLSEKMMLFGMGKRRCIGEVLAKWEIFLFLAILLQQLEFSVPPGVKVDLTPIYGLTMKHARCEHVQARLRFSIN
# CYP3A4 = CYP3A4 (Homo sapiens, UniProt P08684); assay: Inhibition of recombinant human CYP3A4 at 25 uM by fluorescence plate reader analysis; format: ADME
# Sequence of CYP3A4 (P08684 whole entry): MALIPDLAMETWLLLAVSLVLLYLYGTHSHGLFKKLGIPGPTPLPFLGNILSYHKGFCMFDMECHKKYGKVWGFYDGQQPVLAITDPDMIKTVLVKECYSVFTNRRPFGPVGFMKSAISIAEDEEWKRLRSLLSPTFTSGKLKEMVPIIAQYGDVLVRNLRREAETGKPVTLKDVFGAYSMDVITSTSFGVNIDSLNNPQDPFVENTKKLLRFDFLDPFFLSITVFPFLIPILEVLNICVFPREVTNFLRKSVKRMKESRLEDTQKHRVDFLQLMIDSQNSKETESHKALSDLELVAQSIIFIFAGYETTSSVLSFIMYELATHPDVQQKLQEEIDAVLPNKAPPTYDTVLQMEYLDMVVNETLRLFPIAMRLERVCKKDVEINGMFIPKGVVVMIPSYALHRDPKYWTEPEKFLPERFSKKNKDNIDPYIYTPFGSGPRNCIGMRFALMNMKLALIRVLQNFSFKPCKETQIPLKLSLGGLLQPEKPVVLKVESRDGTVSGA
# CYP2C9 = CYP2C9 (Homo sapiens, UniProt P11712); assay: Inhibition of recombinant human CYP2C9 at 25 uM by fluorescence plate reader analysis; format: ADME
# Sequence of CYP2C9 (P11712 whole entry): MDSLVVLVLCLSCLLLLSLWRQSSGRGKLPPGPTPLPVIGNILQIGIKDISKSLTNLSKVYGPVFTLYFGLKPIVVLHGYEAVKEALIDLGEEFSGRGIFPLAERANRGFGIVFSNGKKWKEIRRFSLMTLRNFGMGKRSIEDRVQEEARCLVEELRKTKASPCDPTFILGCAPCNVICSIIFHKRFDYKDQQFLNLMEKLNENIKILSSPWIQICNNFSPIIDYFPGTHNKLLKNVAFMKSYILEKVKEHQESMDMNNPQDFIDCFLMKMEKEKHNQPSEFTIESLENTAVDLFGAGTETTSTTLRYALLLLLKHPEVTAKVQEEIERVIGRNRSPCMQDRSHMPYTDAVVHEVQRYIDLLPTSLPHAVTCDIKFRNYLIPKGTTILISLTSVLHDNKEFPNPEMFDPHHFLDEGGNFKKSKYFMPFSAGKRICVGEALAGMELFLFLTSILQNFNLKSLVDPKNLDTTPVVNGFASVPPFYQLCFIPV
# CYP2D6 = CYP2D6 (Homo sapiens, UniProt P10635); assay: Inhibition of recombinant human CYP2D6 at 10 uM by fluorescence plate reader analysis; format: ADME
# Sequence of CYP2D6 (P10635 whole entry): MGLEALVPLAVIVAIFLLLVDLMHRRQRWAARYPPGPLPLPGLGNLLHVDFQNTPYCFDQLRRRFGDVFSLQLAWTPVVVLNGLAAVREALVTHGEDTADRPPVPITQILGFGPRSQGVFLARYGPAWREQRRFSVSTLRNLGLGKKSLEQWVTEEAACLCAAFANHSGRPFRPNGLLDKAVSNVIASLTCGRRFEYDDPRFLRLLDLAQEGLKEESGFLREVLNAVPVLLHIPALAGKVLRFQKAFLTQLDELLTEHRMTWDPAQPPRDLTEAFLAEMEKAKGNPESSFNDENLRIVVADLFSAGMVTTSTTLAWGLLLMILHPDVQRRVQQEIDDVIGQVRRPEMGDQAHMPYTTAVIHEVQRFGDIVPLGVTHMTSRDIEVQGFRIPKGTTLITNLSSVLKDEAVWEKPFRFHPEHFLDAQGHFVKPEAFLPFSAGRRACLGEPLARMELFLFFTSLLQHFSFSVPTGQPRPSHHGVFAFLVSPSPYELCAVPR
# [5] = Solubility of compound in PBS at pH 2 incubated for 4 hrs under shaking condition by UV absorbance based analysis; format: physicochemical
# [6] = Solubility of compound in PBS at pH 4 incubated for 4 hrs under shaking condition by UV absorbance based analysis; format: physicochemical
# [7] = Solubility of compound in PBS at pH 7.4 incubated for 4 hrs under shaking condition by UV absorbance based analysis; format: physicochemical
# [8] = Solubility of compound in PBS at pH 9 incubated for 4 hrs under shaking condition by UV absorbance based analysis; format: physicochemical
smiles,measurement,setting,value
O=C(O)CC1CCC2(CC1)CCC(c1ccc(NC(=O)c3nnc(Nc4ccc(F)c(F)c4)o3)cc1)CC2 (stereo in doubt; 8a),IC50,[1],64 nM
same,IC50,[2],24 nM
O=C(Nc1ccc(N2CCC3(CC2)CC(C(=O)O)C3)nc1)c1nnc(Nc2ccc(F)c(F)c2)o1,inhibition,Mus musculus [3],Active
same,inhibition,Mus musculus [4],Active
O=C(Nc1ccc(C2CCC3(CC2)CC(C(=O)O)C3)cc1)c1nnc(Nc2ccc(F)c(F)c2)o1 (centres undefined),inhibition at 25 µM,CYP1A2,18%
same,inhibition at 25 µM,CYP3A4,16%
same,inhibition at 25 µM,CYP2C9,24%
O=C([O-])CC1CCC2(CC1)CCN(c1ccc(NC(=O)c3nnc(Nc4ccc(F)c(F)c4)o3)cn1)CC2.[Na+],inhibition at 25 µM,CYP1A2,8%
same,inhibition at 25 µM,CYP3A4,12%
same,inhibition at 10 µM,CYP2D6,7%
same,solubility at 4 h,[5],8 µM
same,solubility at 4 h,[6],< 6 µM
same,solubility at 4 h,[7],37 µM
same,solubility at 4 h,[8],< 6 µM
